Measured values taken from patent US8258119B2, “Anti-cancer drugs and uses relating thereto for metastatic malignant melanoma and other cancers” (Kasina Laila Innova Pharmaceuticals, priority 2008, dated 2012).
≈ marks a conversion by molar mass, not a printed value.

What was measured:
[1] = system: normal human skin epithelial HS.531.sk cells; assay: LDH leakage assay on normal skin cells (tumor selectivity); assay type: cell-based; conditions: 120 μg/ml
Experimental: From the data obtained from the MTT assay (Table J), compound 1, compound 6 and compound 13 have been selected and their cytotoxicity potential has been further validated in LDH leakage assay. […] Cytotoxicity potential of DTIC and its derivative compounds were evaluated by measuring the leaked lactate dehydrogenase (LDH) into the culture supernatant (LDH Cytotoxicity Detection Roche Applied Sciences, Germany). The leaked LDH is directly proportional to the cell damage done by the cytotoxic compounds. In brief, cells were treated with test compounds at various concentrations and incubated for 48 h. Vehicle control culture wells received only a maximum of 0.5% DMSO. The cell free culture supernatants were mixed with catalyst and dye solution and allowed to incubate for 15 min at room temperature. Finally, the reaction was stopped and the optical density was measured at 492 nm in a microplate reader (BioRad, USA). The results (mean OD±SD) obtained from quadruplicate wells were used in calculation to determine the cytotoxicity potential (50% of inhibitory concentration, IC50) of the test compounds. A plot of loss of cell viability as indicated by the leakage of LDH versus drug concentration is depicted in FIG. 1.
Next, to check whether the DTIC derivative compounds can selectively kill the melanoma cells without or minimally affecting the normal cells, we assessed the effect of the test compounds on normal human skin epithelial HS.531.sk cells. […] Whereas, 120 μg/ml of DTIC, compound 1, […] caused 5.8%, 4.2%, 2.4%, and 2.4% reduction in normal cell viability, respectively.

[2] = system: MIA-PaCa2 human pancreas tumor cells; assay: MTT cell proliferation assay in MIA-PaCa2 cells; assay type: cell-based; conditions: MIA PaCa-2, read-out: 50% of inhibitory concentration, IC50 MIA-PaCa2
Experimental: (§1) MTT [3-(4,5-dimethylthiazol-2-yl)-2,5-diphenyltetrazolium bromide] incorporation based cell proliferation assay was performed using standard procedure with some modifications (38). The cytotoxic efficacy of the test compounds were evaluated in human malignant melanoma A2058 cells by MTT cell proliferation assay kit (Roche Applied Sciences, Germany). The assay was carried out according to the instruction provided by the vendor. Briefly, equal numbers of cells was plated in 96-well flat-bottomed plates in 100 μl of medium and were exposed to either DTIC or its derivative compounds at various concentrations up to 150 μg/ml for a period of three days. Vehicle control culture wells received only a maximum of 0.5% DMSO. Thereafter, 0.5 mg/ml of MTT reagent was added to each well and the microplate was incubated further for 4 h at 37° C. in presence of 5% CO2. Finally, the cells were solubilized by adding solubilizing solution and allowed to incubate at 37° C. overnight. After complete solubilization of the formazan crystals the absorbance was read at 540 nm in a microplate reader (BioRad, USA). The results (mean OD±SD) obtained from quadruplicate wells were used in calculation to determine the inhibition of cell proliferation (50% inhibitory concentration, IC50) of the test compounds.
(§2) Anti-tumor growth potential of Compound 1 and Compound 6 were evaluated in MCF-7 human breast tumor cells, MIA-PaCa2 human pancreas tumor cells and DU145 human prostate tumor cells by using MTT based cell proliferation studies as described earlier (example 19). The results (mean OD±SD) obtained from quadruplicate wells were used in calculation to determine the inhibition of cell proliferation (50% of inhibitory concentration, IC50) of the test compounds (Table 4).

[3] = system: A2058, human malignant melanoma cells; assay: MTT cell proliferation assay in A2058 cells; assay type: cell-based; conditions: A2058, 72 h, three days exposure
Experimental: as §1

[4] = system: MCF-7 human breast tumor cells; assay: MTT cell proliferation assay in MCF-7 cells; assay type: cell-based; conditions: MCF7, read-out: 50% of inhibitory concentration, IC50 MCF-7
Experimental: as §1, §2

[5] = system: DU145 human prostate tumor cells; assay: MTT cell proliferation assay in DU145 cells; assay type: cell-based; conditions: DU-145, read-out: 50% of inhibitory concentration, IC50 DU145
Experimental: as §1, §2

[6] = system: PARP cleavage in A2058 human melanoma cells; assay: PARP cleavage Western immunoblot assay; assay type: cell-based; conditions: 100 μg/ml, versus DTIC at the same concentration
Source text: Proteolytic cleavage of PARP by caspases is regarded as a hallmark of apoptosis. Caspase-3 cleaves the 113-kDa PARP to generate 89- and 24-kDa polypeptides (39). Next, with an intention to evaluate the comparative apoptotic potential of DTIC and test products compound 1, compound 6 and compound 13, PARP cleavage assay has been performed on A2058 cells. PARP cleavage was estimated by using Western immunoblot assay as described earlier (40). FIG. 3 illustrates comparative efficacy of PARP cleavage by the test compounds at a fixed dose of 100 μg/ml. […] No. 3 treated A2058 cells is 56.6% more than in DTIC treated cells at the same concentration.

SMILES: CN(C)/N=N/c1ccsc1C(=O)[O-].[K+]
- melting point: 274 to 280 °C

SMILES: CN(C)/N=N/c1ccsc1C(N)=O [Compound 1, 3-[(dimethylamino)diazenyl]thiophene-2-carboxamide]
- reduction in normal cell viability [1]: 4.2%
- IC50 [2]: 168 µg/mL (≈ 850 µM)
- IC50 [3]: 78.7 µg/mL (≈ 397 µM)
- melting point: 168 to 170 °C
- IC50 [4]: 130 µg/mL (≈ 657 µM)
- IC50 [5]: 153 µg/mL (≈ 773 µM)

SMILES: CN(C)/N=N/c1c(Br)csc1C(N)=O [Compound 2, 3-[(dimethylamino)diazenyl]-4-bromothiophene-2-carboxamide]
- IC50 [3]: 113 µg/mL (≈ 409 µM)
- melting point: 194 to 196 °C

SMILES: CN(C)/N=N/c1cc([N+](=O)[O-])sc1C(N)=O [Compound 3, 3-[(dimethylamino)diazenyl]-5-nitrothiophene-2-carboxamide]
- expression of cleaved subunit of PARP at 89 kDa, more than in DTIC treated cells [6]: 56.6%
- reduction in normal cell viability [1]: 2.4%

SMILES: COc1c(C(N)=O)sc(C(N)=O)c1/N=N/N(C)C [Compound 4, 4-[(dimethylamino)diazenyl]-3-methoxythiophene-2,5-dicarboxamide]
- reduction in normal cell viability [1]: 2.4%
- melting point: 226 to 228 °C

SMILES: CN(C)/N=N/c1cc(-c2ccccc2)sc1C(N)=O [Compound 5, 3-[(dimethylamino)diazenyl]-5-phenylthiophene-2-carboxamide]
- melting point: 220 to 222 °C

SMILES: CN(C)/N=N/c1cc([N+](=O)[O-])sc1C(=O)O [Compound 7, 3-[(dimethylamino)diazenyl]-5-nitrothiophene-2-carboxylic acid]
- melting point: 184 to 186 °C

SMILES: CN(C)/N=N/c1cc(-c2ccccc2)sc1C(=O)O [Compound 8, 3-[(dimethylamino)diazenyl]-5-phenylthiophene-2-carboxylic acid]
- melting point: 162 to 166 °C

SMILES: CN(C)/N=N/c1ccsc1C(=O)NCCO [Compound 9, {3-[(dimethylamino)diazenyl] (2-thienyl)}-N-(2-hydroxyethyl)-carboxamide]
- IC50 [3]: 214 µg/mL (≈ 884 µM)
- melting point: 118 to 122 °C

SMILES: CNC(=O)c1sccc1/N=N/N(C)C [Compound 10, {3-[(dimethylamino)diazenyl](2-thienyl)}-N-methylcarboxamide]
- IC50 [3]: 179 µg/mL (≈ 842 µM)
- melting point: 98 to 102 °C

SMILES: CN(C)/N=N/c1ccsc1C(=O)NCCN [Compound 11, N-(2-aminoethyl){3-[(dimethylamino)diazenyl](2-thienyl)}-carboxamide]
- IC50 [3]: 164 µg/mL (≈ 681 µM)

SMILES: CN(C)/N=N/c1csc(C(N)=O)c1 [Compound 12]
- IC50 [3]: 165 µg/mL (≈ 832 µM)
- melting point: 128 to 130 °C

SMILES: CN(C)/N=N/c1cscc1C(N)=O [Compound 13, 4-[(dimethylamino)diazenyl]thiophene-3-carboxamide]
- IC50 [3]: 48.8 µg/mL (≈ 246 µM)
- melting point: 168 to 172 °C

SMILES: Cn1nnc2sc(N)cc2c1=O [Compound 17, 6-amino-3-methylthiopheno[2,3-d]1,2,3-triazin-4-one]
- IC50 [3]: 147 µg/mL (≈ 805 µM)
- melting point: 190 to 194 °C

SMILES: Cn1nnc2cc(-c3ccccc3)sc2c1=O [Compound 18, 3-methyl-6-phenylthiopheno[3,2-d]1,2,3-triazin-4-one]
- melting point: 220 to 222 °C
